Assay results taken from patent US8815935B2, “Inhibitors of protein prenyltransferases” (The Regents of the University of California, priority 2008, dated 2014).
pIC50: −log10 of the molar value.

target: T1, GGTase-I (Rattus norvegicus, UniProt P53610+Q04631); assay: In vitro GGTase-I enzyme assay (IC50, kinetics); type: biochemical; settings: Tables 5, 14; read-out: In vitro (enzyme assay) IC50, GGTase I
T1 construct: purchased JENA BIOSCIENCE
Description: The GGTase-I assay was carried out using RhoA as a substrate protein, GGTase-I (JENA Bioscience) and [3H]geranylgeranyl pyrophosphate. Incubation was for 30 min at 37° C. GGTase-II (or RabGGTase) assay was carried out using YPTI as a substrate protein, GGTase-II (Calbiochem, San Diego, Calif.) plus REP1 (Calbiochem) and [3H]geranylgeranyl pyrophosphate. Incubation was for 30 min at 37° C. FIGS. 20D-20F show the three dimensional structure of GGTase I (D), FTsse (E) and GGTase II (F) which can be obtained from X-ray diffraction studies of protein crystals.
GGTase-I and FTase activities were determined by following the incorporation of radiolabeled isoprenoid [^3H]-geranylgeranyl or [^3H]-farnesyl into substrate proteins. FTase or GGTase-I (50 nM) were used to initiate reactions containing 0.4 μM of [^3H]-FPP or 0.5 μM of [^3H]-GGPP and 2 μM of MBP-tagged substrates (K-Ras4B for FTase; RhoA for GGTase-I) in 20 μl of buffer {50 mM Tris-HCl (pH 7.5), 10 mM MgCl2, […] and 5 mM DTT}. Inhibitors were added at the indicated concentrations. The final DMSO concentration was 2.5% for all samples.
Reactions were carried out for 10 min at 30° C. The reaction mixture was spotted onto a filter paper, treated with 10% trichloroacetic acid (TCA) followed by ethanol and acetone washing. The filter was counted using a scintillation counter. Kinetic assays in which the GGPP concentration was varied employed fixed concentrations of GGTase-I and RhoA, and reactions were carried out for 5 min. Similarly, fixed concentrations of GGTase-I and GGPP were used when the amount of RhoA was varied.

pIC50 | SMILES
7.15 | O=C(NC(Cc1ccccc1)C(=O)O)C1=CCC(c2cccc(Br)c2)N(S(=O)(=O)c2ccc(Cl)cc2)C1c1cccc(Cl)c1 (centres unmarked) [P61-G07]
7.22 | CC(C)CC(NC(=O)C1=CCC(c2cccc(Br)c2)N(S(=O)(=O)c2ccc(Cl)cc2)C1c1cccc(Cl)c1)C(=O)O (centres unmarked) [P61-G08]
6.68 | CC(C)CC(NC(=O)C1=CCC(c2cccc(Br)c2)N(S(=O)(=O)c2ccc(F)cc2)C1c1cccc(Cl)c1)C(=O)O (centres unmarked) [P61-H06]
7.96 | O=C(N[C@@H](Cc1ccccc1)C(=O)O)C1=CC[C@@H](c2cccc(Br)c2)N(S(=O)(=O)c2ccc(F)cc2)[C@H]1c1cccc(Cl)c1 [P61-H07]
6.74 | CC(C)CC(NC(=O)C1=CCC(c2cccc(Cl)c2)N(S(=O)(=O)c2ccc(Cl)cc2)C1c1cccc(Cl)c1)C(=O)O (centres unmarked) [P61-H08]
7.68 | O=C(NC(Cc1ccccc1)C(=O)O)C1=CCC(c2cccc(Cl)c2)N(S(=O)(=O)c2ccc(Cl)cc2)C1c1cccc(Cl)c1 (centres unmarked) [P61-H09]

same assay, conditions: Tables 8-15; no unit printed there (Table 7 head: μM unless otherwise specified); read-out: In vitro (GGTase I IC50)

IC50 [µM] | SMILES
0.363 | Cc1ccccc1S(=O)(=O)N1[C@@H](c2ccc(Cl)c(Cl)c2)C(C(=O)O)=C[C@H]1C(C)(C)C
0.348 | CC(C)(C)[C@@H]1C=C(C(=O)O)[C@H](c2ccc(Cl)c(Cl)c2)N1S(=O)(=O)c1ccccc1Br
0.349 | CC(C)(C)[C@@H]1C=C(C(=O)O)[C@H](c2ccc(Br)cc2)N1S(=O)(=O)c1ccccc1Cl
3.4 | Cc1ccccc1S(=O)(=O)N1[C@@H](c2ccc(Cl)cc2)C(C(=O)O)=C[C@H]1C(C)CC(C)(C)C (some centres unmarked)
> 20 | COC(=O)[C@H](Cc1ccccc1)NC(=O)CCOCC1=C[C@@H](C(C)(C)C)N(S(=O)(=O)c2ccccc2C)[C@H]1c1ccc(Cl)cc1
> 20 | Cc1ccccc1S(=O)(=O)N1C(c2cccc(Cl)c2)C(C(N)=O)=CC[C@H]1c1ccc(Cl)cc1 (some centres unmarked)
> 50 | COC(=O)[C@H](CC(C)C)NC(=O)C1=CC[C@@H](c2ccc(Cl)cc2)N(S(=O)(=O)c2ccccc2C)C1c1cccc(Cl)c1 (some centres unmarked)
> 50 | Cc1ccccc1S(=O)(=O)N1[C@@H](c2cccc(Cl)c2)C(C(=O)N[C@@H](CC(C)C)C(N)=O)=CC[C@H]1c1ccc(Cl)cc1
39.1 | CC(C)C[C@H](NC(=O)C1=CC[C@@H](c2cccc(Br)c2)N(S(=O)(=O)c2ccc(Cl)cc2)[C@H]1c1cccc(Cl)c1)C(N)=O
0.5 | Cc1ccccc1S(=O)(=O)N1[C@@H](c2ccc(Cl)cc2)C(C(=O)O)=C[C@H]1C(C)(C)C [drawing 143]
> 20 | CC(C)(C)[C@@H]1C=C(C(=O)N[C@@H](Cc2ccccc2)C(N)=O)[C@H](c2ccc(Cl)c(Cl)c2)N1S(=O)(=O)c1ccccc1Br [drawing 167]
0.31 | Cc1ccccc1S(=O)(=O)N1C(c2cccc(Cl)c2)C(C(=O)O)=CC[C@H]1c1ccc(Cl)cc1 (some centres unmarked) [drawing 183]
0.31 | Cc1ccccc1S(=O)(=O)N1C(c2cccc(Cl)c2)C(C(=O)O)=CC[C@H]1c1ccc(Cl)cc1 (some centres unmarked) [drawing 189]
> 20 | CC(C)C[C@H](NC(=O)C1=CC[C@@H](c2cccc(Cl)c2)N(S(=O)(=O)c2ccc(Br)cc2)[C@H]1c1cccc(Cl)c1)C(N)=O [drawing 209]

system: Jurkat cells; assay: Jurkat cell growth inhibition; type: cell-based, human; settings: Homo sapiens, Jurkat, Table 6; read-out: Jurkat cell GI50
Description: In Table 4 in cell GI50 values for the growth inhibition of Jurkat cells are reported. The GI50 value is the concentration of a test compound needed to produce 50% growth inhibition in the cell type listed. In Table 4 the isolated yield of each synthetic step for the synthesis of corresponding compounds are also reported.
Panc-1 cells (Pancreatic cancer cell line) and Jurkat cells (T-cell leukemia) were treated with 12.5 μM of P5-H6 or 12.5 μM of mP5-H6a for 72 hours. The cell number was counted as described in Example 5.
Cell viability was determined by Cell Counting Kit-8 (CCK-8, Dojindo, Kumamoto, Japan) as described previously (31). Cell viability was calculated relative to the DMSO control. Cell cycle profile was analyzed by flow cytometry as described previously (32).

GI50 [µM] | SMILES
0.21 | CC(C)CC(NC(=O)C1=CCC(c2cccc(Br)c2)N(S(=O)(=O)c2ccc(F)cc2)C1c1cccc(Cl)c1)C(=O)O (centres unmarked) [P61-H06]

same assay, conditions: Homo sapiens, Jurkat, Tables 4, 6, 7; read-out: Jurkat cell GI50

GI50 [µM] | SMILES
4.89 | Cc1ccccc1S(=O)(=O)N1[C@@H](c2ccc(Cl)cc2)C(C(=O)N[C@@H](Cc2ccccc2)C(N)=O)=C[C@H]1C(C)(C)C [P61-A06]

same assay, conditions: Homo sapiens, Jurkat, Tables 8-15; no unit printed there; read-out: Jurkat GI50

GI50 [µM] | SMILES
5.1 | COC(=O)[C@H](Cc1ccccc1)NC(=O)CCOCC1=C[C@@H](C(C)(C)C)N(S(=O)(=O)c2ccccc2C)[C@H]1c1ccc(Cl)cc1
5.36 | Cc1ccccc1S(=O)(=O)N1C(c2cccc(Cl)c2)C(C(N)=O)=CC[C@H]1c1ccc(Cl)cc1 (some centres unmarked)
6.1 | COC(=O)[C@H](CC(C)C)NC(=O)C1=CC[C@@H](c2ccc(Cl)cc2)N(S(=O)(=O)c2ccccc2C)C1c1cccc(Cl)c1 (some centres unmarked)
20 | Cc1ccccc1S(=O)(=O)N1[C@@H](c2ccc(Cl)cc2)C(C(=O)O)=C[C@H]1C(C)(C)C [drawing 143]
20 | Cc1ccccc1S(=O)(=O)N1C(c2cccc(Cl)c2)C(C(=O)O)=CC[C@H]1c1ccc(Cl)cc1 (some centres unmarked) [drawing 183]

same assay, conditions: Tables 4, 6, 7; read-out: Jurkat cell GI50

GI50 [µM] | SMILES
10.5 | COC(=O)[C@H](Cc1ccccc1)NC(=O)C1=C[C@@H](C(C)(C)C)N(S(=O)(=O)c2ccccc2C)[C@H]1c1ccc(Cl)cc1 [P61-A05]
6.1 | Cc1ccccc1S(=O)(=O)N1[C@@H](c2ccc(Cl)cc2)C(C(=O)N[C@@H](Cc2ccccc2)C(N)=O)=C[C@H]1C(C)(C)C [P61-B07]
